What all share (type): functional
The test system of test [1] is Mycobacterium tuberculosis. The experiment in a line: Antimicrobial activity against pyrazinamide-resistant Mycobacterium tuberculosis BCG(SI) after 16 to 20 hrs by two-fold microdilution broth method. For orientation: Broth dilution looks for growth in wells or tubes with falling amounts of substance.
Test [2] relates to Mycobacterium tuberculosis. The experiment in a line: Antimicrobial activity against isoniazid-resistant Mycobacterium tuberculosis Who-185 after 16 to 20 hrs by two-fold microdilution broth method.
In test [3] the test system is Mycobacterium tuberculosis. The experiment in a line: Antimicrobial activity against rifampicin-resistant Mycobacterium tuberculosis Who-185 after 16 to 20 hrs by two-fold microdilution broth method.

Molecules are shown by their SMILES. ≈ marks a conversion by molar mass, not a printed value. Calls of active or inactive are those of the source. The rule behind the calls is not given here.

In general, MIC refers to the lowest concentration that inhibits growth of the organism. As to `Nc1ncnc2c1ncn2[C@@H]1O[C@H](CNS(=O)(=O)NC(=O)CCCC[C@@H]2SC[C@@H]3NC(=O)N[C@@H]32)[C@@H](O)[C@H]1O`, the MIC in test [1], in test [2] and in test [3] was 0.1 µg/mL (≈ 0.175 µM) each time.
Regarding `Nc1ncnc2c1ncn2[C@@H]1O[C@H](COP(=O)(O)OCCCCC[C@@H]2SC[C@@H]3NC(=O)N[C@@H]32)[C@@H](O)[C@H]1O`, the MIC result in test [1] is “inactive”. Moreover, the minimal inhibitory concentration (MIC) in test [2] was 0.5 µg/mL (≈ 0.894 µM); in test [3] it was 2.5 µg/mL (≈ 4.47 µM).

(Values after ChEMBL document CHEMBL3421591, “Improved Synthesis of Biotinol-5'-AMP: Implications for Antibacterial Discovery” (ACS Med Chem Lett, 2015).)
